From a melting point compilation (Tetko et al.; mined from patent text by program, amines drawn as free bases though some values may be those of a salt) come the findings set out here.

Usually melting point stands for the temperature, or range, at which the solid turns liquid.

Some results are limits rather than exact numbers.

For the compound `O=C1N(c2ccccc2)c2ccccc2C1(Cc1ccncc1)Cc1ccncc1`, the melting point is 186 to 188 °C. As for `CCCc1nnc2n1-c1ccc(Br)cc1C(c1ccccn1)=NC2`, the figure is 184 to 186 °C. Take `O=C(NCCN1CCOCC1)N1c2ccccc2-c2noc3c2C1CCC3` (stereo unspecified): the melting point lay in the range of 176 to 178 °C. As for `CCCCn1ccc(-c2ccc3c(ccn3[C@H]3CC[C@H](O)CC3)c2)c(Cl)c1=O`, the figure is 191 °C; as for `Cc1cc(C)cc(C(=O)Cc2ccncc2)c1`, 90 to 91 °C. `CN1CCC2(C)c3cc(OC(=O)N4CCc5ccccc5C4)ccc3N(C)C12` (stereo unspecified) came in with a melting point of 118 to 119 °C. As for `CCCCCCCCCCCCCCOc1ccc(CC(=O)CO)cc1`, the figure is 84 to 85 °C; as for `CCOC(=O)C1=C(N2CCCCC2)N=C(C)C(C(=O)OCC)C1c1ccccc1C#N` (stereo unspecified), 103 °C. Consider `CC(=O)Nc1cc(Cl)c([N+](=O)[O-])cc1NC(C)=O`, for which the melting point stood at 232 °C. The compound `O=C(Oc1ccc(S(=O)(=O)Nc2ccccc2)cc1)c1ccc(CCBr)cc1` registered a melting point of 156 to 157 °C. As for `O=[N+]([O-])C1NC=CN1c1cccnc1` (stereo unspecified), the figure is 261 °C; as for `Cc1cc(OC(F)F)ccc1NC(=O)c1cccc(I)c1C(=O)NC(C)C`, 207 to 209 °C. The compound `O=c1cc(N2CCOCC2)cc(-c2ccccc2)o1` yielded a melting point of 161 to 162 °C.

Compound `C#CCN1C(=O)COc2ccc(-n3c(=O)cc(C(F)(F)F)[nH]c3=O)cc21` showed a melting point of more than 250 °C.

For `ClC1c2ccccc2CSc2ccccc21` (stereo unspecified), the melting point was 79 to 82 °C. As for `COc1cccc(-c2ccc3c(c2)C2(CCCCC2)C(=NOCc2ccccc2)N3)c1`, the figure is 101 to 104 °C; as for `C=C(C)C(=O)N(SC1CCCCC1)c1ccccc1`, 56 to 56.5 °C; as for `N#CCC1CCN(c2ccc(N3C[C@H](CO)OC3=O)cc2)CC1`, 110 to 112 °C. With `CCOc1ncc(Cl)cc1C1OC(=O)NC1=O` (stereo unspecified) the figure was 119 to 124 °C; with `Cc1noc(NS(=O)(=O)c2cccc(Cl)c2C)c1Br`, 185 to 187 °C; with `FC(F)c1nc2ccccc2n1-c1nc(Nc2ccncn2)nc(N2CCOCC2)n1`, 233 to 235 °C. In turn, `C=COC(=O)N=c1sc2cc(OC(F)(F)F)ccc2n1CCO` returned a melting point of 190 °C. Compound `CN(c1cccc(-c2ccnc3c(C#N)cnn23)c1)S(C)(=O)=O` displayed a melting point of 193 to 195 °C. As for `CC(=O)OC1CCc2cc(N(C(C)=O)S(C)(=O)=O)c(Oc3ccccc3)cc21` (stereo unspecified), the figure is 70 °C.

In turn, `CCCCNC(=S)NS(=O)(=O)c1cc2c(cc1OC)OCCC2CNC(=O)c1cc(Cl)ccc1OC` (stereo unspecified) had a melting point of 167 °C. As for `CC(C#Cc1cccc(Oc2ccsc2)c1)N(O)C(N)=O` (stereo unspecified), the melting point lay within 93 to 95 °C. As to `CCC(=O)Oc1ccc2nc(NC(=O)Nc3ccccc3)sc2c1`, the melting point is 212 to 215 °C. As for `CNC(=O)Oc1ccc(NS(C)(=O)=O)c(C)c1`, the figure is 167 to 169 °C. Regarding `COCCOc1ccc(C=O)c(Oc2ncc(C(F)(F)F)cc2Cl)c1`, the melting point is 80.5 to 81 °C.

Regarding `Cc1ccc(S(=O)(=O)ON=C(CCN2C(=O)c3ccccc3C2=O)n2nc(C(C)(C)C)cc2N)cc1`, the melting point fell in the range of 80 to 82 °C. Regarding `CCOC(=O)c1cc2ccc(C#N)cc2[nH]1`, the melting point was found to be 176 °C. As for `O=S(=O)(c1ccc(O)cc1)N1c2ccc(Br)cc2-c2ccccc2C1c1ccccc1` (stereo unspecified), the figure is 262 to 265 °C; as for `Oc1ccc(C(=C2CCCCCC2)c2ccc(Br)cc2)cc1F`, 102 to 104 °C; as for `CCCC(CCC)Nc1nc(C)nc(Oc2c(Br)cc(C(C)(C)O)cc2OC)c1N`, 114 to 116 °C. `CCCC(CNC(=O)Cc1c(Cl)cncc1Cl)c1cccc(OC)c1` (stereo unspecified): the melting point lay in the range of 97 to 98 °C. With `CCC12CCC3=C(CCc4cc(OC(C)=O)ccc43)C1CCC2=O` (stereo unspecified) the figure was 132 to 134 °C. As for `C=CCOC(=O)c1ccc(OC(=O)c2ccc(OC)c(C34CC5CC(CC(C5)C3)C4)c2)c(C)c1`, the figure is 138 to 139 °C. Compound `CCC(C(=O)NC)n1nnc2ccccc21` (stereo unspecified) had a melting point of 136 to 137 °C.

Compound `COc1cc2cc(/C=N\O)sc2cc1OC` came in with a melting point of 211 to 215 °C. As for `CCOC(=O)CCCCN1CCc2ccc(NS(=O)(=O)c3ccccc3)cc2C1`, the figure is 120 to 121 °C; as for `CCOC(=O)c1ccc(NC(=O)c2ccncc2)cc1`, 143 to 145 °C.

The compound `COc1cc(C)nc(NC(=O)NS(=O)(=O)c2ccccc2C(=O)Nc2nncs2)n1` showed a melting point of 172 to 173 °C. `CC(C)(C)OC(=O)N(CC(=O)O)CC(=O)O` gave a melting point of 135 to 137 °C.

`Cn1nnnc1-c1cnc2ccccn2c1=O` showed a melting point of 280 to 282 °C.

Regarding `OCc1ccc(CCc2ccncc2)cc1`, the melting point was 163 to 166 °C. With `CCNC(=O)N1N=C(c2ccc(N)cc2)c2cc(Cl)ccc2CC1C` (stereo unspecified) the figure was 165 to 167 °C; with `Nc1nc(-c2cc(Cl)ccc2Cl)nc(N2CCS(=O)CC2)n1`, 267 to 269 °C; with `CC(CCCO)C1CC=C2C3=C(CCC21C)C1(C)CCC(O)C(C)(C)C1CC3` (stereo unspecified), 203 to 208 °C.

Regarding `CC(=O)Nc1cnc(-c2ccccc2)[nH]c1=O`, the melting point fell in the range of 281 to 282 °C. `CSC(=S)NCCNC(C)=O` returned a melting point of 139 to 140 °C. With `CCCCc1cc(C#N)ncc1C(=O)O` the figure was 267 to 268 °C; with `O=C1CCCC(c2ccccc2)N1c1ccc(F)cc1` (stereo unspecified), 87.5 to 88.5 °C. With `O=C(Nc1ccc(Cl)cc1)n1cc(F)c(=O)[nH]c1=O` the figure was more than 260 °C; with `CNC(=O)[C@H](Cc1ccc(OCc2ccccc2)cc1)NC(=O)[C@H](CC(C)C)N[C@H](C)C(=O)OC`, 65 to 68 °C. Regarding `CN1CCC(=O)N(c2ccccc2Cl)C1=O`, the melting point lay within 120 to 123 °C. On to `O=C(CCCCN1CCN(c2cccc(Cl)c2Cl)CC1)N1CCc2ccccc21`, for which the melting point is 121 to 123 °C. In turn, `CC(=O)Oc1cc(C(C)=O)cc(C#N)c1OC(C)=O` displayed a melting point of 76 to 79 °C. In turn, `CC(=O)N(O)Cc1cccc([N+](=O)[O-])c1` had a melting point of 80 °C. With `CCOCC1COc2c(cc3ncc(C(=O)O)c(O)c3c2Cl)O1` (stereo unspecified) the figure was 266 to 267 °C; with `N#Cc1ccc(CN2C(=O)C3CCCC3N(C(=O)CN3C(=O)c4ccccc4C3=O)c3ccccc32)cc1` (stereo unspecified), 222 to 224 °C; with `CC(C)OC(=O)N1CCC(c2nc3cc(-c4ccc(C(=O)NCCO)c(F)c4)ccc3o2)CC1`, 145 to 147 °C.

`N#Cc1c(N)ccc2cc(Cl)cnc12` displayed a melting point of 246 °C. In the case of `CCCC(=O)c1cnc2c(OC)cccc2c1Nc1sccc1C`, the melting point was in the range of 132 to 133 °C. Consider `Nc1nc2ccccc2c2c1ncn2CCCCCCCCNC(=O)c1ccccc1`, for which the melting point fell in the range of 133 to 137 °C. As for `CCN(CC)C(=S)Oc1cc(Br)cc(Br)c1`, the figure is 72 to 74 °C. As for `COC(=O)CCC(C)C1CCC2C3CCC4CC(N)CCC4(C)C3CC(=O)C12C` (stereo unspecified), the figure is 129 to 130 °C. Regarding `CC(O)C#Cc1cccc(NC(=O)Nc2ncc(C(C)C)s2)c1` (stereo unspecified), the melting point lay in the range of 71 to 73 °C. With `Cc1ccc(N2N=C3c4cc(C)sc4CCCC3CC2=O)cc1` (stereo unspecified) the figure was 117 to 119 °C; with `Cn1ncc2c1=CC1=CC=C(N)C(=O)C=21`, 225 to 227 °C; with `O=C1SC(Cc2ccc(OCCON=Cc3cnc4ccccc4c3)cc2)C(=O)N1C(c1ccccc1)(c1ccccc1)c1ccccc1` (stereo unspecified), 127 to 130 °C.

As to `Cc1nc(-c2sc(-c3ccc(Cl)cc3)nc2C)sc1C(=O)O`, the melting point is 265 to 268 °C. With `CC(C)c1nn(-c2ccc(C(F)(F)F)cn2)cc1CCCOc1cc(CCC(=O)O)n(C2CCCCC2)n1` the figure was 166 to 167 °C; with `NS(=O)(=O)c1ccc(NC(=O)c2ccccc2S)cc1`, 230 to 231 °C. For `CC(=O)c1cn(Cc2ccccc2F)c(=O)n(Cc2ccccc2F)c1=O`, the melting point is 149 to 150 °C. With `O=c1c2cc(Cl)ccc2nc(CSc2ncnc3[nH]cnc23)n1-c1ccccc1Cl` the figure was 237 to 238 °C; with `CN1CCN(c2nc3cccccc-3n2)CC1`, 93 to 95 °C; with `Brc1ccc(N2CCOCC2)cc1`, 118 to 120 °C. With `CSC1=NC(C)C(c2ccccc2)=NN1` (stereo unspecified) the figure was 159 to 160 °C; with `COC(=O)C(CCCc1cc(C(C)(C)C)c(O)c(C(C)(C)C)c1)S(=O)(=O)C(CCCc1cc(C(C)(C)C)c(O)c(C(C)(C)C)c1)C(=O)OC` (stereo unspecified), 68 to 69 °C; with `CN(C(=O)c1ccccc1C(c1ccc(O)cc1)c1ccc(O)cc1)c1ccccc1`, 246 to 247 °C.

On to `NS(=O)(=O)Oc1cc(Cl)cc(Cl)c1`, for which the melting point was 146 to 147 °C.

Turning to `COc1cc(-c2nc(-c3ccc(N(C)C)cc3)c(-c3ccc(N(C)C)cc3)[nH]2)cc(OC)c1O`, the melting point was 258 to 260 °C. As for `CCOc1ccc(C[C@@H](NC(=O)[C@H]2CC[C@H](C(C)C)CC2)C(=O)O)cc1`, the figure is 149 to 151 °C; as for `COC(=O)CCC(=O)c1ccc2c(c1)C(C)NC(=O)N2` (stereo unspecified), 142 to 150 °C. As to `CC(C)(C(=O)O)c1ccc(Cl)c([N+](=O)[O-])c1`, the melting point amounted to 157 °C. On to `COc1ccc(NC(=O)Nc2ccc(Cl)c(Cl)c2)cc1NS(=O)(=O)c1cccs1`, for which the melting point lay within 205 to 208 °C. In turn, `NC(=O)c1cc2cc(F)ccc2nc1N` gave a melting point of 232 to 236 °C.

`CSc1ccc(-c2cnn(CC(F)(F)F)c(=O)c2Cl)cc1` showed a melting point of 130 to 139 °C. As for `CCOCc1nc2c(N)nc3ccccc3c2n1NCCCNC(=O)C1CCCC1`, the figure is 75 to 77 °C. Regarding `COc1ccc(N2CCN(CC[C@H]3CC[C@H](NC(N)=O)CC3)CC2)c(Cl)c1Cl`, the melting point lay in the range of 195 to 198 °C. With `CCCCSc1cc(C(=O)O)cc(N=Nc2cc(C(=O)O)cc(SCCCC)c2C(=O)c2ccccc2)c1C(=O)c1ccccc1` the figure was 102 to 103 °C.
